How the values were obtained:
Test in all cases: Post-emergence herbicidal activity, greenhouse
Format in all cases: in vivo
[1] = system: Barnyardgrass
In short: (§1)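 2–3-week-old plants, post-emergence atomizer spray, ~0.4% emulsifier; candidate from 1.0% stock in acetone, THF or water. Greenhouse hold; injury vs control at ~2/4 WAT.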

[2] = system: Canada Thistle; conditions: Table I, 4 WAT
In short: as §1

[3] = system: Cocklebur
In short: as §1

[4] = system: Crabgrass; conditions: Table II
In short: as §1

[5] = system: Downy Brome
In short: as §1

[6] = system: Hemp Sesbania; conditions: Table II
In short: as §1

[7] = system: Johnsongrass; conditions: Table I, 4 WAT
In short: as §1

[8] = system: Lambsquarters
In short: as §1

[9] = system: Morningglory
In short: as §1

[10] = system: Panicum Spp; conditions: Table II
In short: as §1

[11] = system: Quackgrass; conditions: Table I, 4 WAT
In short: as §1

[12] = system: Rice; conditions: Table II
In short: as §1

[13] = system: Smartweed
In short: as §1

[14] = system: Sorghum; conditions: Table II
In short: as §1

[15] = system: Soybean; conditions: Table II
In short: as §1

[16] = system: Sugar Beet; conditions: Table II
In short: as §1

[17] = system: Velvetleaf
In short: as §1

[18] = system: Wheat; conditions: Table II
In short: as §1

[19] = system: Wild Buckwheat; conditions: Table II
In short: as §1

[20] = system: Yellow Nutsedge; conditions: Table I, 4 WAT
In short: as §1

SMILES: COC(=O)CN(CP(=O)(Oc1ccccc1)Oc1ccccc1)SSC(C)C [I, Glycine, N-[(diphenoxyphosphinyl)methyl]-N-[(1-methylethyl)dithio]-, methyl ester]
- post-emergence herbicidal activity index ([1]; Table I, 5.6 kg/h, 4 WAT): 4 (100% control)
- post-emergence herbicidal activity index ([1]; Table I, 11.2 kg/h, 4 WAT): 4 (100% control)
- post-emergence herbicidal activity index ([1]; Table II, 0.056 kg/h, 2 WAT): 0 (0- 24% control)
- post-emergence herbicidal activity index ([1]; Table II, 0.28 kg/h, 2 WAT): 1 (25-49% control)
- post-emergence herbicidal activity index ([1]; Table II, 1.12 kg/h, 4 WAT): 2 (50-74% control)
- post-emergence herbicidal activity index ([1]; Table II, 5.6 kg/h, 4 WAT): 4 (100% control)
- post-emergence herbicidal activity index ([1]; Table II, 11.2 kg/h, 4 WAT): 3 (75-99% control)
- post-emergence herbicidal activity index ([2]; 5.6 kg/h): 2 (50-74% control)
- post-emergence herbicidal activity index ([2]; 11.2 kg/h): 3 (75-99% control)
- post-emergence herbicidal activity index ([3]; Table I, 5.6 kg/h, 4 WAT): 4 (100% control)
- post-emergence herbicidal activity index ([3]; Table I, 11.2 kg/h, 4 WAT): 4 (100% control)
- post-emergence herbicidal activity index ([3]; Table II, 0.056 kg/h, 2 WAT): 0 (0- 24% control)
- post-emergence herbicidal activity index ([3]; Table II, 0.28 kg/h, 2 WAT): 0 (0- 24% control)
- post-emergence herbicidal activity index ([3]; Table II, 1.12 kg/h, 4 WAT): 2 (50-74% control)
- post-emergence herbicidal activity index ([3]; Table II, 5.6 kg/h, 4 WAT): 3 (75-99% control)
- post-emergence herbicidal activity index ([3]; Table II, 11.2 kg/h, 4 WAT): 0 (0- 24% control)
- post-emergence herbicidal activity index ([4]; 0.056 kg/h, 2 WAT): 0 (0- 24% control)
- post-emergence herbicidal activity index ([4]; 0.28 kg/h, 2 WAT): 0 (0- 24% control)
- post-emergence herbicidal activity index ([4]; 1.12 kg/h, 4 WAT): 3 (75-99% control)
- post-emergence herbicidal activity index ([4]; 5.6 kg/h, 4 WAT): 4 (100% control)
- post-emergence herbicidal activity index ([4]; 11.2 kg/h, 4 WAT): 3 (75-99% control)
- post-emergence herbicidal activity index ([5]; Table I, 5.6 kg/h, 4 WAT): 3 (75-99% control)
- post-emergence herbicidal activity index ([5]; Table I, 11.2 kg/h, 4 WAT): 3 (75-99% control)
- post-emergence herbicidal activity index ([5]; Table II, 0.056 kg/h, 2 WAT): 0 (0- 24% control)
- post-emergence herbicidal activity index ([5]; Table II, 0.28 kg/h, 2 WAT): 0 (0- 24% control)
- post-emergence herbicidal activity index ([5]; Table II, 1.12 kg/h, 4 WAT): 1 (25-49% control)
- post-emergence herbicidal activity index ([5]; Table II, 5.6 kg/h, 4 WAT): 2 (50-74% control)
- post-emergence herbicidal activity index ([5]; Table II, 11.2 kg/h, 4 WAT): 2 (50-74% control)
- post-emergence herbicidal activity index ([6]; 0.056 kg/h, 2 WAT): 0 (0- 24% control)
- post-emergence herbicidal activity index ([6]; 0.28 kg/h, 2 WAT): 0 (0- 24% control)
- post-emergence herbicidal activity index ([6]; 1.12 kg/h, 4 WAT): 1 (25-49% control)
- post-emergence herbicidal activity index ([6]; 5.6 kg/h, 4 WAT): 4 (100% control)
- post-emergence herbicidal activity index ([6]; 11.2 kg/h, 4 WAT): 0 (0- 24% control)
- post-emergence herbicidal activity index ([7]; 5.6 kg/h): 3 (75-99% control)
- post-emergence herbicidal activity index ([7]; 11.2 kg/h): 4 (100% control)
- post-emergence herbicidal activity index ([8]; Table I, 5.6 kg/h, 4 WAT): 3 (75-99% control)
- post-emergence herbicidal activity index ([8]; Table I, 11.2 kg/h, 4 WAT): 4 (100% control)
- post-emergence herbicidal activity index ([8]; Table II, 0.056 kg/h, 2 WAT): 0 (0- 24% control)
- post-emergence herbicidal activity index ([8]; Table II, 0.28 kg/h, 2 WAT): 0 (0- 24% control)
- post-emergence herbicidal activity index ([8]; Table II, 1.12 kg/h, 4 WAT): 3 (75-99% control)
- post-emergence herbicidal activity index ([8]; Table II, 5.6 kg/h, 4 WAT): 4 (100% control)
- post-emergence herbicidal activity index ([8]; Table II, 11.2 kg/h, 4 WAT): 3 (75-99% control)
- post-emergence herbicidal activity index ([9]; Table I, 5.6 kg/h, 4 WAT): 4 (100% control)
- post-emergence herbicidal activity index ([9]; Table I, 11.2 kg/h, 4 WAT): 3 (75-99% control)
- post-emergence herbicidal activity index ([9]; Table II, 0.056 kg/h, 2 WAT): 0 (0- 24% control)
- post-emergence herbicidal activity index ([9]; Table II, 0.28 kg/h, 2 WAT): 0 (0- 24% control)
- post-emergence herbicidal activity index ([9]; Table II, 1.12 kg/h, 4 WAT): 2 (50-74% control)
- post-emergence herbicidal activity index ([9]; Table II, 5.6 kg/h, 4 WAT): 3 (75-99% control)
- post-emergence herbicidal activity index ([9]; Table II, 11.2 kg/h, 4 WAT): 1 (25-49% control)
- post-emergence herbicidal activity index ([10]; 0.056 kg/h, 2 WAT): 0 (0- 24% control)
- post-emergence herbicidal activity index ([10]; 0.28 kg/h, 2 WAT): 1 (25-49% control)
- post-emergence herbicidal activity index ([10]; 1.12 kg/h, 4 WAT): 1 (25-49% control)
- post-emergence herbicidal activity index ([10]; 5.6 kg/h, 4 WAT): 3 (75-99% control)
- post-emergence herbicidal activity index ([10]; 11.2 kg/h, 4 WAT): 3 (75-99% control)
- post-emergence herbicidal activity index ([11]; 5.6 kg/h): 4 (100% control)
- post-emergence herbicidal activity index ([11]; 11.2 kg/h): 3 (75-99% control)
- post-emergence herbicidal activity index ([12]; 0.056 kg/h, 2 WAT): 0 (0- 24% control)
- post-emergence herbicidal activity index ([12]; 0.28 kg/h, 2 WAT): 0 (0- 24% control)
- post-emergence herbicidal activity index ([12]; 1.12 kg/h, 4 WAT): 0 (0- 24% control)
- post-emergence herbicidal activity index ([12]; 5.6 kg/h, 4 WAT): 3 (75-99% control)
- post-emergence herbicidal activity index ([12]; 11.2 kg/h, 4 WAT): 3 (75-99% control)
- post-emergence herbicidal activity index ([13]; Table I, 5.6 kg/h, 4 WAT): 4 (100% control)
- post-emergence herbicidal activity index ([13]; Table I, 11.2 kg/h, 4 WAT): 4 (100% control)
- post-emergence herbicidal activity index ([13]; Table II, 0.056 kg/h, 2 WAT): 0 (0- 24% control)
- post-emergence herbicidal activity index ([13]; Table II, 0.28 kg/h, 2 WAT): 0 (0- 24% control)
- post-emergence herbicidal activity index ([13]; Table II, 1.12 kg/h, 4 WAT): 3 (75-99% control)
- post-emergence herbicidal activity index ([13]; Table II, 5.6 kg/h, 4 WAT): 4 (100% control)
- post-emergence herbicidal activity index ([13]; Table II, 11.2 kg/h, 4 WAT): 3 (75-99% control)
- post-emergence herbicidal activity index ([14]; 0.056 kg/h, 2 WAT): 0 (0- 24% control)
- post-emergence herbicidal activity index ([14]; 0.28 kg/h, 2 WAT): 0 (0- 24% control)
- post-emergence herbicidal activity index ([14]; 1.12 kg/h, 4 WAT): 1 (25-49% control)
- post-emergence herbicidal activity index ([14]; 5.6 kg/h, 4 WAT): 3 (75-99% control)
- post-emergence herbicidal activity index ([14]; 11.2 kg/h, 4 WAT): 2 (50-74% control)
- post-emergence herbicidal activity index ([15]; 0.056 kg/h, 2 WAT): 0 (0- 24% control)
- post-emergence herbicidal activity index ([15]; 0.28 kg/h, 2 WAT): 0 (0- 24% control)
- post-emergence herbicidal activity index ([15]; 1.12 kg/h, 4 WAT): 1 (25-49% control)
- post-emergence herbicidal activity index ([15]; 5.6 kg/h, 4 WAT): 3 (75-99% control)
- post-emergence herbicidal activity index ([15]; 11.2 kg/h, 4 WAT): 0 (0- 24% control)
- post-emergence herbicidal activity index ([16]; 0.056 kg/h, 2 WAT): 0 (0- 24% control)
- post-emergence herbicidal activity index ([16]; 0.28 kg/h, 2 WAT): 0 (0- 24% control)
- post-emergence herbicidal activity index ([16]; 1.12 kg/h, 4 WAT): 2 (50-74% control)
- post-emergence herbicidal activity index ([16]; 5.6 kg/h, 4 WAT): 4 (100% control)
- post-emergence herbicidal activity index ([16]; 11.2 kg/h, 4 WAT): 3 (75-99% control)
- post-emergence herbicidal activity index ([17]; Table I, 5.6 kg/h, 4 WAT): 3 (75-99% control)
- post-emergence herbicidal activity index ([17]; Table I, 11.2 kg/h, 4 WAT): 4 (100% control)
- post-emergence herbicidal activity index ([17]; Table II, 0.056 kg/h, 2 WAT): 0 (0- 24% control)
- post-emergence herbicidal activity index ([17]; Table II, 0.28 kg/h, 2 WAT): 1 (25-49% control)
- post-emergence herbicidal activity index ([17]; Table II, 1.12 kg/h, 4 WAT): 2 (50-74% control)
- post-emergence herbicidal activity index ([17]; Table II, 5.6 kg/h, 4 WAT): 4 (100% control)
- post-emergence herbicidal activity index ([17]; Table II, 11.2 kg/h, 4 WAT): 1 (25-49% control)
- post-emergence herbicidal activity index ([18]; 0.056 kg/h, 2 WAT): 0 (0- 24% control)
- post-emergence herbicidal activity index ([18]; 0.28 kg/h, 2 WAT): 0 (0- 24% control)
- post-emergence herbicidal activity index ([18]; 1.12 kg/h, 4 WAT): 1 (25-49% control)
- post-emergence herbicidal activity index ([18]; 5.6 kg/h, 4 WAT): 3 (75-99% control)
- post-emergence herbicidal activity index ([18]; 11.2 kg/h, 4 WAT): 0 (0- 24% control)
- post-emergence herbicidal activity index ([19]; 0.056 kg/h, 2 WAT): 0 (0- 24% control)
- post-emergence herbicidal activity index ([19]; 0.28 kg/h, 2 WAT): 0 (0- 24% control)
- post-emergence herbicidal activity index ([19]; 1.12 kg/h, 4 WAT): 2 (50-74% control)
- post-emergence herbicidal activity index ([19]; 5.6 kg/h, 4 WAT): 3 (75-99% control)
- post-emergence herbicidal activity index ([19]; 11.2 kg/h, 4 WAT): 0 (0- 24% control)
- post-emergence herbicidal activity index ([20]; 5.6 kg/h): 3 (75-99% control)
- post-emergence herbicidal activity index ([20]; 11.2 kg/h): 3 (75-99% control)
